Laboratory results from PMC11035696, “Prospective de novo drug design with deep interactome learning” (Nature Communications, 2024).
“Also recorded” adds a separate entry of the source.

Assays:
5HT2B = 5HT2B (Homo sapiens, UniProt P41595); assay: Safety off-target panel, binding; details: single point
Text: (§1) Table S9-S12 list all targets, their species, inhibition (%) and assay type for the experiments conducted in the
(§2) off-targets. […] The numbers for mean
(§3) inhibition (%) represent single point measurements.
(§4) off-targets. […] The numbers for
(§5) mean inhibition (%) represent single point measurements.

5HT2A = 5HT2A (Homo sapiens, UniProt P28223); assay: Safety off-target panel, binding; details: single point
Text: as §1, §2, §3, §4, §5

HISTAMINE H3 RECEPTOR = HISTAMINE H3 RECEPTOR (Homo sapiens, UniProt Q9Y5N1); assay: Safety off-target panel, binding; details: single point
Text: as §1, §2, §3, §4, §5

β1-ADRENOCEPTOR = β1-ADRENOCEPTOR (Homo sapiens, UniProt P08588); assay: Safety off-target panel, binding; details: single point
Text: as §1, §2, §3, §4, §5

[1] = molecular target: CHOLECYSTOKININ 1 RECEPTOR (Homo sapiens, UniProt P32238); assay: Safety off-target panel, binding; details: single point
Text: as §1, §2, §3, §4, §5

PROSTAGLANDIN F RECEPTOR = PROSTAGLANDIN F RECEPTOR (Homo sapiens, UniProt P43088); assay: Safety off-target panel, binding; details: single point
Text: as §1, §2, §3, §4, §5

HISTAMINE H1 RECEPTOR = HISTAMINE H1 RECEPTOR (Homo sapiens, UniProt P35367); assay: Safety off-target panel, binding; details: single point
Text: as §1, §2, §3, §4, §5

PPARγ = PPARγ (Homo sapiens, UniProt P37231); assay: Safety off-target panel, binding; details: single point
Text: as §1, §2, §3, §4, §5

5HT3 = 5HT3 (Homo sapiens, UniProt P46098); assay: Safety off-target panel, binding; details: single point
Text: as §1, §2, §3, §4, §5

[2] = molecular target: ANGIOTENSIN II RECEPTOR 1 (Homo sapiens, UniProt P30556); assay: Safety off-target panel, binding; details: single point
Text: as §1, §2, §3, §4, §5

alpha1A-ADRENOCEPTOR = alpha1A-ADRENOCEPTOR (Homo sapiens, UniProt P35348); assay: Safety off-target panel, binding; details: single point
Text: as §1, §2, §3, §4, §5

CANNABINOID RECEPTOR CB1 = CANNABINOID RECEPTOR CB1 (Homo sapiens, UniProt P21554); assay: Safety off-target panel, binding; details: single point
Text: as §1, §2, §3, §4, §5

[3] = molecular target: NOREPINEPHRINE TRANSPORTER (Homo sapiens, UniProt P23975); assay: Safety off-target panel, binding; details: single point
Text: as §1, §2, §3, §4, §5

ESTROGEN RECEPTOR α = ESTROGEN RECEPTOR α (Homo sapiens, UniProt P03372); assay: Safety off-target panel, binding; details: single point
Text: as §1, §2, §3, §4, §5

[4] = molecular target: GLYCINE RECEPTOR, STRYCHNINE INSENSITIVE (Rattus norvegicus, UniProt P35439); assay: Safety off-target panel, binding; details: read-out: Mean inhibition (%)
Text: as §1, §2, §3, §4, §5

[5] = molecular target: NICOTINIC RECEPTOR, MUSCLE (Homo sapiens, UniProt P02708+P07510+P11230+Q07001); assay: Safety off-target panel, binding; details: single point
Text: as §1, §2, §3, §4, §5

MUSCARINIC RECEPTOR M1 = MUSCARINIC RECEPTOR M1 (Homo sapiens, UniProt P11229); assay: Safety off-target panel, binding; details: single point
Text: as §1, §2, §3, §4, §5

β2-ADRENOCEPTOR = β2-ADRENOCEPTOR (Homo sapiens, UniProt P07550); assay: Safety off-target panel, binding; details: single point
Text: as §1, §2, §3, §4, §5

SEROTONIN TRANSPORTER = SEROTONIN TRANSPORTER (Homo sapiens, UniProt P31645); assay: Safety off-target panel, binding; details: single point
Text: as §1, §2, §3, §4, §5

α2A-ADRENOCEPTOR = α2A-ADRENOCEPTOR (Homo sapiens, UniProt P08913); assay: Safety off-target panel, binding; details: single point
Text: as §1, §2, §3, §4, §5

[6] = molecular target: DOPAMINE D2 RECEPTOR (short) (Homo sapiens, UniProt P14416); assay: Safety off-target panel, binding; details: single point
Text: as §1, §2, §3, §4, §5

5HT1A = 5HT1A (Homo sapiens, UniProt P08908); assay: Safety off-target panel, binding; details: single point
Text: as §1, §2, §3, §4, §5

MUSCARINIC RECEPTOR M2 = MUSCARINIC RECEPTOR M2 (Homo sapiens, UniProt P08172); assay: Safety off-target panel, binding; details: single point
Text: as §1, §2, §3, §4, §5

κ OPIOID RECEPTOR = κ OPIOID RECEPTOR (Homo sapiens, UniProt P41145); assay: Safety off-target panel, binding; details: single point
Text: as §1, §2, §3, §4, §5

µ OPIOID RECEPTOR = µ OPIOID RECEPTOR (Homo sapiens, UniProt P35372); assay: Safety off-target panel, binding; details: single point
Text: as §1, §2, §3, §4, §5

ADENOSINE A3 RECEPTOR = ADENOSINE A3 RECEPTOR (Homo sapiens, UniProt P0DMS8); assay: Safety off-target panel, binding; details: single point
Text: as §1, §2, §3, §4, §5

DOPAMINE D1 RECEPTOR = DOPAMINE D1 RECEPTOR (Homo sapiens, UniProt P21728); assay: Safety off-target panel, binding; details: single point
Text: as §1, §2, §3, §4, §5

ANDROGEN RECEPTOR = ANDROGEN RECEPTOR (Homo sapiens, UniProt P10275); assay: Safety off-target panel, binding; details: single point
Text: as §1, §2, §3, §4, §5

[7] = test system: cytochrome P450 isoenzymes (Cyp3A4, Cyp1A2, Cyp2B6, Cyp2C9, Cyp2D6, Cyp2C19, Cyp2C8); assay: CYP inhibition, summary over seven isoenzymes; type: in vitro ADME; details: dose-response experiments up to 20 μM, result in words
Protocol: (§6) SI11Absorption Distribution Metabolism and Excretion and Toxicity Data
(§7) To assess the drug-like characteristics of the newly designed PPAR modulators, a series of tests were conducted covering various aspects of absorption, distribution, metabolism, and excretion (ADME) properties. Specifically, these assessments included the parallel artificial membrane permeability assay (PAMPA) with permeation co- […]
(§8) efficients ([…]), LogD measurements, microsomal clearance, hepatocyte clearance, P-glycoprotein (Pgp) efflux ratio and binding and the unbound free fraction. Furthermore, the evaluation of inhibition po-tential against cytochrome P450 isoenzymes (CYP) proteins was investigated. For seven selected CYP proteins (i.e., Cyp3A4, Cyp1A2, Cyp2B6, Cyp2C9, Cyp2D6, Cyp2C19, and Cyp2C8) the half maximal inhibitory con-centration (IC50) was determined. (Table S15). […]
(§9) activity in the CYP assays was found.
(§10) Table S14: Absorption distribution metabolism and excretion (ADME) properties of compounds 1 and 2. […]
(§11) The values for microsomal clearance and CYP-inhibition represent single point measurements. […]
Molecule Enzyme Substrate IC50 (µM) […]

CYP2C8 = CYP2C8 (Homo sapiens, UniProt P10632); assay: CYP inhibition dose-response; type: in vitro ADME; details: substrate AMODIAQUINE
Protocol: as §6, §7, §8, §9, §10, §11
Molecule Enzyme Substrate IC50 (µM)

Chain of κ OPIOID RECEPTOR (P41145 whole entry): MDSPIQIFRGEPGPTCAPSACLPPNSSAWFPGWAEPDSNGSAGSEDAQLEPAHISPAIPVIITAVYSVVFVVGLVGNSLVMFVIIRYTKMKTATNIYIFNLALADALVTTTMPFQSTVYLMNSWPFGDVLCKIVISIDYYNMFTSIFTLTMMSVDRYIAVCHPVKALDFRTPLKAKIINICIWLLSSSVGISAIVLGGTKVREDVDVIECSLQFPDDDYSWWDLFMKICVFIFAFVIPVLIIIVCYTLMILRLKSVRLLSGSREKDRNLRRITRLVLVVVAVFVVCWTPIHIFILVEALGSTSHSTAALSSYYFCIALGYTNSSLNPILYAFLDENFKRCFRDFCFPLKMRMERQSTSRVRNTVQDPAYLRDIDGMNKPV
Chain of SEROTONIN TRANSPORTER (P31645 whole entry): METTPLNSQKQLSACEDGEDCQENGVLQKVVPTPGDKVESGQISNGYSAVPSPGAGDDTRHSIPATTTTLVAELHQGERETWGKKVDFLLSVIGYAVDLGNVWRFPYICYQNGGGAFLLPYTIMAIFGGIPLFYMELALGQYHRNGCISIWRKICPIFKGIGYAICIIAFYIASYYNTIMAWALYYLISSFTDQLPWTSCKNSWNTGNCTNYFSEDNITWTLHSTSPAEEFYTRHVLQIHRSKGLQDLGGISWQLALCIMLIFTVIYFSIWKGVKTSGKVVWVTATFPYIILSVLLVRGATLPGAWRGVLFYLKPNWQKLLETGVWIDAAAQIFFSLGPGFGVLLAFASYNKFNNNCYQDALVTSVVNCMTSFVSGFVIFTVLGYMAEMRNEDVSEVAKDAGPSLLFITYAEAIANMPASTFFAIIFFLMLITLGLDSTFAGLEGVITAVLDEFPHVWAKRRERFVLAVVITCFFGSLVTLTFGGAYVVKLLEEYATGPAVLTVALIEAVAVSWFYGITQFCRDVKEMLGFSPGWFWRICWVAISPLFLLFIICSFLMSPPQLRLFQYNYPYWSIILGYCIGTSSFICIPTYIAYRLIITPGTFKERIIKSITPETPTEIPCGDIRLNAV
Chain of HISTAMINE H1 RECEPTOR (P35367 whole entry): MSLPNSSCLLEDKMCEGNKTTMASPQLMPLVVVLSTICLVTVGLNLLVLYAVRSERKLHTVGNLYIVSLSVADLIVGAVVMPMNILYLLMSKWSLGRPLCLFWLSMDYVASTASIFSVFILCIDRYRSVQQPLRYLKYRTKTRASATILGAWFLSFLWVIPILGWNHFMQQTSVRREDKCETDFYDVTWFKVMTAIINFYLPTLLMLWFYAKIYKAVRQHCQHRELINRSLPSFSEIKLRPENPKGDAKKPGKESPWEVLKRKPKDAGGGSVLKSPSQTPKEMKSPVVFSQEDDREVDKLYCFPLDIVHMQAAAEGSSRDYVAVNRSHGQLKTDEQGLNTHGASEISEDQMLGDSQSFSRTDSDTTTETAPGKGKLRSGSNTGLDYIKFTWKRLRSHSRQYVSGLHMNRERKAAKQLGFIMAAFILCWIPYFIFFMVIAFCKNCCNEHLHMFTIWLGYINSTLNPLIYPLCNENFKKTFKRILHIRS
Chain of µ OPIOID RECEPTOR (P35372 whole entry): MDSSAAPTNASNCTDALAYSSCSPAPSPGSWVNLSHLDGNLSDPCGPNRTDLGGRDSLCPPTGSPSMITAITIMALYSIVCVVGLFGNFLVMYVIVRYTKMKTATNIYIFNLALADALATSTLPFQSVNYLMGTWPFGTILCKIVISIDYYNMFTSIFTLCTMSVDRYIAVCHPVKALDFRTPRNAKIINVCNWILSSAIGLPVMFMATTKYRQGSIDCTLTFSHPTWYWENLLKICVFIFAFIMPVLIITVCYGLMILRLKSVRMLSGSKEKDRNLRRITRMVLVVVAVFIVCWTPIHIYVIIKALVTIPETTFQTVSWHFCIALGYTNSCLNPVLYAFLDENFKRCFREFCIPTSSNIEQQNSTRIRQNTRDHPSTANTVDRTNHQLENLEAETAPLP
Chain of UniProt P08588 (P08588 whole entry): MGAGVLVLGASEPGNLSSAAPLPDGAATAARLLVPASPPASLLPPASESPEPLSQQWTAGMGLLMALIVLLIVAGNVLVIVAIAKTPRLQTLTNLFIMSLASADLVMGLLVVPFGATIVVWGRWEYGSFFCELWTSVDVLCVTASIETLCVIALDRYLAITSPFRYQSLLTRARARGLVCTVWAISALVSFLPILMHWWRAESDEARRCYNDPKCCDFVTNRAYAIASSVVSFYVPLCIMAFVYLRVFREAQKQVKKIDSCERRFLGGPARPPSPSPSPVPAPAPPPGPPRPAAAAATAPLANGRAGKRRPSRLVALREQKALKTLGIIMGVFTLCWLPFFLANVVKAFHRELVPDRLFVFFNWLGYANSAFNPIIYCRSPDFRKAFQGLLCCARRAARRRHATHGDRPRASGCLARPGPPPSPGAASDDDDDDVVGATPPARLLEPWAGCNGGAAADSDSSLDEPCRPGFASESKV
Chain of 5HT1A (P08908 whole entry): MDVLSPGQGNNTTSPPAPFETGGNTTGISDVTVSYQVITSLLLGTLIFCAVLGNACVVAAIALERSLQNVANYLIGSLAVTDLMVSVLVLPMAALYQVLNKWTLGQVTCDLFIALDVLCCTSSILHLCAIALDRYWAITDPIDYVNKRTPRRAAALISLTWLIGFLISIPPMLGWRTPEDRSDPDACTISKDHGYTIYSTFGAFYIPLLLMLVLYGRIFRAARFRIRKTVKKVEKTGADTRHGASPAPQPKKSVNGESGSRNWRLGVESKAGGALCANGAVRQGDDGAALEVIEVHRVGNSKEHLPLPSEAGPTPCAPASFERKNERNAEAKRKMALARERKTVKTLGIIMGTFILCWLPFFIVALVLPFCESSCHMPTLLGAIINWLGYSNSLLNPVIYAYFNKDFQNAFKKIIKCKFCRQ
Chain of GLYCINE RECEPTOR, STRYCHNINE INSENSITIVE (P35439 394-800): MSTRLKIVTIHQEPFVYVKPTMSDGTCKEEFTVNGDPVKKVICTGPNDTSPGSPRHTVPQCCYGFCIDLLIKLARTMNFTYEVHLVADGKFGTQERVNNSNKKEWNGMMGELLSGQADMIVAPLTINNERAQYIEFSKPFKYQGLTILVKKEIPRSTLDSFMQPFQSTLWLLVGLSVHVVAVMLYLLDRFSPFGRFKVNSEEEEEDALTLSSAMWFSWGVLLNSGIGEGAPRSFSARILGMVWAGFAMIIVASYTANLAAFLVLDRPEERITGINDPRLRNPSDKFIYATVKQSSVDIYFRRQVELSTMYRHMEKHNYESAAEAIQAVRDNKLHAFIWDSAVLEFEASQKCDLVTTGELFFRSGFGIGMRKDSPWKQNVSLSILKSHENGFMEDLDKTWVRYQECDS
Chain of PPARγ (P37231 whole entry): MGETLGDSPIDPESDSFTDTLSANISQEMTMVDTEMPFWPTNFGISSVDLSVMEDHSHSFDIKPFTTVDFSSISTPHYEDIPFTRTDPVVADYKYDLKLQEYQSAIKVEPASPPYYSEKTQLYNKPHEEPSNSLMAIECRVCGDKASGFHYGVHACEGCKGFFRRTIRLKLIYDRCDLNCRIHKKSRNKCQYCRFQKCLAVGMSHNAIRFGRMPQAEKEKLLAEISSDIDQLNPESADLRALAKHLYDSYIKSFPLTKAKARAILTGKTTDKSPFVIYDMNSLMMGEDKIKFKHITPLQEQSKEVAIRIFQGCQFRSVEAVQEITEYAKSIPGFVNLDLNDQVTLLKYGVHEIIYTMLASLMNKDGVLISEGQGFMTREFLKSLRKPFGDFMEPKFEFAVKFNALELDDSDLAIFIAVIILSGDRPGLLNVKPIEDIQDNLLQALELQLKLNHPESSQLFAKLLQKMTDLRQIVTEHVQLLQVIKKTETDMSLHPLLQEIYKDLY
Chain of UniProt P23975 (P23975 whole entry): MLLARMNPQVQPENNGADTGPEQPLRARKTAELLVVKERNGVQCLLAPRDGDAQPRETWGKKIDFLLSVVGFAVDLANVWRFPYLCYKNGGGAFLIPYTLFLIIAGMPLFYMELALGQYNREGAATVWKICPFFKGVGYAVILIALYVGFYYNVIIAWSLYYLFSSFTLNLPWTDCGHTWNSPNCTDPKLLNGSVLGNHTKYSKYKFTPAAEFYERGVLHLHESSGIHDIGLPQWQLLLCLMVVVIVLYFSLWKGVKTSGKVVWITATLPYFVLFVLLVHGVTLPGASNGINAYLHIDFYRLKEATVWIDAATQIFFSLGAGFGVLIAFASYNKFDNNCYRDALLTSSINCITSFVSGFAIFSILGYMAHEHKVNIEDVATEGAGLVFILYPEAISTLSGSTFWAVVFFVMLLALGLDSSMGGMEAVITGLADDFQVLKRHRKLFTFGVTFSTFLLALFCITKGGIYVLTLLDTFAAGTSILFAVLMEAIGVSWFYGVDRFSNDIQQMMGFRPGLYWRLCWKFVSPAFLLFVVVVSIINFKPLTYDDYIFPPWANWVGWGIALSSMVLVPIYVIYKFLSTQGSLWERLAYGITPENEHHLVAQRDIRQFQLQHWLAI
Chain of DOPAMINE D1 RECEPTOR (P21728 whole entry): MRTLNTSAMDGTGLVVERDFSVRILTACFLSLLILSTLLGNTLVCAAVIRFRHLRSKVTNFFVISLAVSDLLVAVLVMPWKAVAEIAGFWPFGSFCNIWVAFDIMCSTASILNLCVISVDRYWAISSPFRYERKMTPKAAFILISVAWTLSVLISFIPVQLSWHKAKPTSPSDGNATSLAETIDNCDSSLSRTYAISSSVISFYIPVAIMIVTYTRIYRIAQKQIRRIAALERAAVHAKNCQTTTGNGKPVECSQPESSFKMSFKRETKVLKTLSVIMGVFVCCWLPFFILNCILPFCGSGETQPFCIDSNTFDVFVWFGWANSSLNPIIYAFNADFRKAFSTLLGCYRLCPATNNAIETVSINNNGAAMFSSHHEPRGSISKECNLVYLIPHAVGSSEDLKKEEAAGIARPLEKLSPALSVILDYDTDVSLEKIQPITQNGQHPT

| Structure (SMILES) | inhibition at 10 µM (5HT2B) | inhibition at 10 µM (5HT2A) | inhibition at 10 µM (HISTAMINE H3 RECEPTOR) | inhibition at 10 µM (β1-ADRENOCEPTOR) | inhibition at 10 µM [1] | inhibition at 10 µM (PROSTAGLANDIN F RECEPTOR) | inhibition at 10 µM (HISTAMINE H1 RECEPTOR) | inhibition at 10 µM (PPARγ) | inhibition at 10 µM (5HT3) | inhibition at 10 µM [2] | inhibition at 10 µM (alpha1A-ADRENOCEPTOR) | inhibition at 10 µM (CANNABINOID RECEPTOR CB1) | inhibition at 10 µM [3] | inhibition at 10 µM (ESTROGEN RECEPTOR α) | inhibition at 10 µM [4] | inhibition at 10 µM [5] | inhibition at 10 µM (MUSCARINIC RECEPTOR M1) | inhibition at 10 µM (β2-ADRENOCEPTOR) | inhibition at 10 µM (SEROTONIN TRANSPORTER) | inhibition at 10 µM (α2A-ADRENOCEPTOR) | also measured |
| --- | --- | --- | --- | --- | --- | --- | --- | --- | --- | --- | --- | --- | --- | --- | --- | --- | --- | --- | --- | --- | --- |
| COc1ccc(Oc2ccc3ncn(CCOc4ccc(CCC(=O)O)cc4)c3c2)cc1 [Compound 2] | 7.1% | -8.8% | 2.1% | 6.9% | 7.6% | 4.6% | -6.7% | 89.6% | 0.3% | -6.2% | 2.9% | -3.2% | 0.7% | -1.8% | -8.3% | 0.9% | -0.2% | 7% | 6.4% | 4.9% | inhibition at 10 µM [6]: -6.8%; inhibition at 10 µM (5HT1A): 22.7%; inhibition at 10 µM (MUSCARINIC RECEPTOR M2): 6.9%; inhibition at 10 µM (κ OPIOID RECEPTOR): -0.7%; inhibition at 10 µM (µ OPIOID RECEPTOR): 6.2%; inhibition at 10 µM (ADENOSINE A3 RECEPTOR): 17.1%; inhibition at 10 µM (DOPAMINE D1 RECEPTOR): -5.7%; inhibition at 10 µM (ANDROGEN RECEPTOR): 3.1%; interaction with the seven pivotal cytochrome P450 isoenzymes [7]: did not echibit any relevant; also recorded: did not exhibit any relevant activity; IC50 (CYP2C8): 1750 nM |
| Cc1nnc(-c2ccc(OCCCOc3ccc(CCC(=O)O)c(F)c3)c(F)c2)s1 [Compound 1] | 6.6% | -3.3% | 4.9% | 0.7% | 1.2% | 0% | -7% | 95% | -4.7% | -7.5% | 1.7% | 9.3% | -3.3% | 13.6% | 2.3% | -3.7% | 8.4% | 4% | 6.9% | -3.2% | inhibition at 10 µM [6]: -1.9%; inhibition at 10 µM (5HT1A): -20.6%; inhibition at 10 µM (MUSCARINIC RECEPTOR M2): 4.2%; inhibition at 10 µM (κ OPIOID RECEPTOR): 10.9%; inhibition at 10 µM (µ OPIOID RECEPTOR): -6.9%; inhibition at 10 µM (ADENOSINE A3 RECEPTOR): 9%; inhibition at 10 µM (DOPAMINE D1 RECEPTOR): -3.3%; inhibition at 10 µM (ANDROGEN RECEPTOR): -1.6%; interaction with the seven pivotal cytochrome P450 isoenzymes [7]: did not echibit any relevant; also recorded: did not exhibit any relevant activity; IC50 (CYP2C8): > 20000 nM |
